Reference: patent US5484771A, “Antiherpes peptide derivatives having a 1,4-dioxo-C, N-terminus” (priority 1994, dated 1996)
“And” between values parts separate entries of the source, which are not always exact repeats. Identical values can stand only once. Numbered stars: 1 amine (or outer) side, 2 acyl side, 3 side chain; on linkers, the order of the positions; unused ones are H or OH. Peptide text beside a SMILES is read from it. * marks the point of attachment. Suc = O=C(CCC(=O)[*:2])[*:1]; Pyrrolidide = C1CCN(*)C1; NHiPr = CC(C)N*

Target: T1, HSV-1 ribonucleotide reductase (Human herpesvirus 1, UniProt P08543)
T1 construct: HSV-1 ribonucleotide reductase (partially purified) was obtained from quiescent BHK-21/C13 cells infected with strain F HSV-1 virus; made in house; host or cells: quiescent BHK-21/C13 cells infected with HSV-1 strain F (10 pfu/cell); partially purified
Test: biochemical
Conditions: IC50, concentration producing 50% of the maximal inhibition of enzyme activity; partially purified enzyme; mean of four assays
From the text: HSV-1 ribonucleotide reductase (partially purified) was obtained from quiescent BHK-21/C13 cells infected with strain F HSV-1 virus at 10 plaque forming units/cell as described by E. A. Cohen et at., J. Gem Virol., 66, 733 (1985).
By following the procedure described by P. Gaudreau et at., J. Biol, Chem., 262, 12413 (1987), the assay results listed in the following table were obtained. The assay result for each exemplified compound of formula 1 is expressed as the concentration of the compound producing 50% of the maximal inhibition (IC50) of enzyme activity. The number of units of the enzyme preparation used in each assay was constant, based on the specific activity of the enzyme preparation. The results are relative to the activity obtained in control experiments without the test compound and represent the mean of four assays that varied less than 10% with each other.

T1 sequence (P08543 whole entry): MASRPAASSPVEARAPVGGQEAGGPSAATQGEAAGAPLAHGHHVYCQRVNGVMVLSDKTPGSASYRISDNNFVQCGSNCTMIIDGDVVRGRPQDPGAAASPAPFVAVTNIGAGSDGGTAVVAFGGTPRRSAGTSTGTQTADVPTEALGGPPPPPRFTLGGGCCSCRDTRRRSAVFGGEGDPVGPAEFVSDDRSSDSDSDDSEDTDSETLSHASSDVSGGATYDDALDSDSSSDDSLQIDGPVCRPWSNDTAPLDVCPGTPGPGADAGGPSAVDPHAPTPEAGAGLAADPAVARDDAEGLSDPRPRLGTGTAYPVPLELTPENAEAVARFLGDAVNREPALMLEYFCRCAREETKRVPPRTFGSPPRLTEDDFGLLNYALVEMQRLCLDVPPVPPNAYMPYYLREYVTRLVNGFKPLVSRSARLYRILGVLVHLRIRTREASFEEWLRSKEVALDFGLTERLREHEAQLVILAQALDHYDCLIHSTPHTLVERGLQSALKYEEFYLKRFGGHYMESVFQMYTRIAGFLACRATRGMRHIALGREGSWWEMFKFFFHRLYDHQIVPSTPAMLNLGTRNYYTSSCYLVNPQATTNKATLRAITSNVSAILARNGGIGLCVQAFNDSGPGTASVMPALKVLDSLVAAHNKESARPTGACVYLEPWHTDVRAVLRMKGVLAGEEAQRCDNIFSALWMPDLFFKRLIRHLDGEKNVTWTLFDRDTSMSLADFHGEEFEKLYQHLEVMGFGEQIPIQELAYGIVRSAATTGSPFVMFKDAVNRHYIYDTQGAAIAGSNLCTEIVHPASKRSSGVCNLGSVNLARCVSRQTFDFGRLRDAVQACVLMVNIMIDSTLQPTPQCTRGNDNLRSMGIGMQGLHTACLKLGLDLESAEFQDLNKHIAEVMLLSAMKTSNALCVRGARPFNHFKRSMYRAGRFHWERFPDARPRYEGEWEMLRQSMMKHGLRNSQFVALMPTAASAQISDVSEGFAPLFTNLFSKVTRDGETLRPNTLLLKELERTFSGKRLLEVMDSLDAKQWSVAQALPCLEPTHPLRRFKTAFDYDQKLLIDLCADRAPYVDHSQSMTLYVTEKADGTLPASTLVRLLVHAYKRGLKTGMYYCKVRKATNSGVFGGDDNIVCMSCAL

Compound	IC50
CC(C)C[C@H](NC(=O)[C@H](CC(=O)O)NC(=O)[C@H](CC(=O)N1CCCC1)NC(=O)CCC(=O)NC1CCCCC1)C(=O)O [Cyclohexylamino-COCH2 CH2 CO-Asp(pyrrolidino)-Asp-Leu-OH]	22 µM
CCC(CC)NC(=O)c1ccccc1C(=O)N[C@@H](CC(=O)N1CCCC1)C(=O)N[C@@H](CC(=O)O)C(=O)N[C@@H](CC(C)C)C(=O)O [Et2 CHNHCO-(1,2-phenylene)-CO-Asp(pyrrolidino)-Asp-Leu-OH]	6.5 µM
CCC(CC)NC(=O)C1CCCCC1C(=O)N[C@@H](CC(=O)N1CCCC1)C(=O)N[C@@H](CC(=O)O)C(=O)N[C@@H](CC(C)C)C(=O)O (stereo partly drawn) [Et2 CHNHCO-(cis-1,2-cyclohexanediyl)-CO-Asp(pyrrolidino)-Asp-Leu-OH]	3.7 µM and 2.21 µM
CCC(CC)NC(=O)/C=C\C(=O)N[C@@H](CC(=O)N1CCCC1)C(=O)N[C@@H](CC(=O)O)C(=O)N[C@@H](CC(C)C)C(=O)O [Et2 CHNHCO-(cis-CH=CH)-CO-Asp(pyrrolidino)-Asp-Leu-OH]	21 µM
CCC(CC)NC(=O)CCC(=O)N(C)[C@@H](CC(=O)N1CCCC1)C(=O)N[C@@H](CC(=O)O)C(=O)N[C@@H](CC(C)C)C(=O)O [Et2 CHNHCOCH2 CH2 CO-(N-Me)-Asp(pyrrolidino)-Asp-Leu-OH]	2 µM
CCC(CC)NC(=O)CCC(=O)N[C@@H](CC(=O)N1CCC(C)CC(C)(C)C1)C(=O)N[C@@H](CC(=O)O)C(=O)N[C@@H](CC(C)C)C(=O)O (stereo partly drawn) [Et2 CHNHCOCH2 CH2 CO-Asp(3,3,5-trimethylhexahydroazepino)-Asp-Leu-OH]	12 µM
CCC(CC)NC(=O)CCC(=O)N[C@@H](CC(=O)OCCCCCl)C(=O)N[C@@H](CC(=O)O)C(=O)N[C@@H](CC(C)C)C(=O)O [Et2 CHNHCOCH2 CH2 CO-Asp(4-chloro-butyloxy)-Asp-Leu-OH]	20 µM
CCCCCCCCN(C)C(=O)C[C@H](NC(=O)CCC(=O)NC(CC)CC)C(=O)N[C@H](C(=O)N[C@@H](CC(C)C)C(=O)O)C1(C(=O)O)CCCC1 [Et2 CHNHCOCH2 CH2 CO-Asp(N-Me-N-octyl)-Asp(cyPn)-Leu-OH]	0.73 µM
CCC(CC)NC(=O)CCC(=O)N[C@@H](CC(=O)N1CCC1)C(=O)N[C@@H](CC(=O)O)C(=O)N[C@@H](CC(C)C)C(=O)O [Et2 CHNHCOCH2 CH2 CO-Asp(azetidino)-Asp-Leu-OH]	9.1 µM
CCC(CC)NC(=O)CCC(=O)N[C@@H](CC(=O)OC1CCCCC1)C(=O)N[C@@H](CC(=O)O)C(=O)N[C@@H](CC(C)C)C(=O)O [Et2 CHNHCOCH2 CH2 CO-Asp(cyclohexyloxy)-Asp-Leu-OH]	75 µM
CCC(CC)NC(=O)CCC(=O)N[C@@H](CC(=O)N1CCCC1)C(=O)N[C@H](C(=O)NCCC(C)(C)C)C(C)(C)C(=O)O [Et2 CHNHCOCH2 CH2 CO-Asp(pyrrolidino)-Asp(diMe)-NH[CH2 CH2 C(CH3)3 ]]	75 µM
CCCCCC[C@H](C)OC(=O)C[C@H](NC(=O)CCC(=O)NC(CC)CC)C(=O)N[C@H](C(=O)N[C@@H](CC(C)C)C(=O)O)C1(C(=O)O)CCC1 [Et2 CHNHCOCH2 CH2 CO-Asp[1(S)-methylheptyloxy]-Asp(cyBu)-Leu-OH]	4.4 µM
CCC(CC)NC(=O)CCC(=O)N[C@@H](CC(=O)N(C)CCO)C(=O)N[C@@H](CC(=O)O)C(=O)N[C@@H](CC(C)C)C(=O)O [Et2 CHNHCOCH2 CH2 CO-Asp[N(CH3)CH2-CH2 OH]-Asp-Leu-OH]	11 µM
CCC(CC)NC(=O)CCC(=O)N[C@@H](CC(=O)C1CCCC1)C(=O)N[C@@H](CC(=O)O)C(=O)N[C@@H](CC(C)C)C(=O)O [Et2 CHNHCOCH2 CH2 CO-NHCH-(2-cyclopentyl-2-oxoethyl)-CO-Asp-Leu-OH]	3.4 µM
CCCCCCCC(=O)C[C@H](NC(=O)CCC(=O)NC(CC)CC)C(=O)N[C@@H](CC(=O)O)C(=O)N[C@@H](CC(C)C)C(=O)O [Et2 CHNHCOCH2 CH2 CO-NHCH-(2-oxononyl)-CO-Asp-Leu-OH]	9 µM
CCC(CC)NC(=O)CCC(=O)N[C@@H](CC(=O)N1CCCC1)C(=O)N[C@H](C(=O)N[C@H](CO)CC(C)C)C1(C(=O)O)CCC1 [Et2 CHNHCOCH2 CH2,CO-Asp(pyrrolidino)-Asp(cyBu)-(L-leucinol)]	5 µM
CCC(CC)NC(=O)CCC(=O)N[C@@H](CC(=O)N(C)CCOC(C)=O)C(=O)N[C@@H](CC(=O)O)C(=O)N[C@@H](CC(C)C)C(=O)O [Et2 CHNHCOCH2 CH 2 CO-Asp[N(CH3)CH2-CH2 OCOCH3 ]-Asp-Leu-OH]	9.9 µM
CC(C)CNC(=O)CCC(=O)N[C@@H](CC(=O)N1CCCC1)C(=O)N[C@@H](CC(=O)O)C(=O)N[C@@H](CC(C)C)C(=O)O [Me2 CHCH2 NHCOCH2 CH2 CO-Asp(pyrrolidino)-Asp-Leu-OH]	75 µM
CC(C)C[C@H](NC(=O)[C@H](CC(=O)O)NC(=O)[C@H](CC(=O)N1CCCC1)NC(=O)CCC(=O)NC(C)C)C(=O)O [Me2 CHNHCOCH2 CH2 CO-Asp(pyrrolidino)-Asp-Leu-OH] ({NHiPr-Suc}-Asp(Pyrrolidide)-Asp-Leu-OH)	18 µM
CCC(CC)NC(=O)CCC(=O)N[C@@H](CC(=O)N1CCCC1)C(=O)N[C@@H](CC(=O)O)C(=O)N[C@@H](CC(C)C)C(=O)O [Title Compound of Example 10, Et2 CHNHCOCH2 CH2 CO--Asp(pyrrolidiono)--Asp-Leu--OH]	2.9 µM
CCC(CC)NC(=O)C[C@H](C(=O)N[C@@H](CC(=O)N1CCCC1)C(=O)N[C@H](C(=O)N[C@@H](CC(C)(C)C)C(=O)O)C1(C(=O)O)CCCC1)C(C)(C)C [Title Compound of Example 11, Et2 CHNH--COCH2 CH[(S)-C(CH3)3]CO--Asp(pyrrolidino)--Asp(cyPn)-γMeLeu--OH]	0.17 µM
